We go through two molecules from PMC7145717, “A nucleotide-dependent oligomerization of the Escherichia coli replication initiator DnaA requires residue His136 for remodeling of the chromosomal origin” (Nucleic Acids Research, 2019).

The target in data set [1] is T1, DnaA (Escherichia coli replication initiator DnaA) (Escherichia coli, UniProt P03004, Q156E).
T1 construct: full-length, residues 1-467, 10X-histidine-tagged, recombinant from plasmid pZL411, Ni-NTA purified (SAXS samples also Sephacryl-300 gel filtration), ~52 kDa monomer
T1 sequence (P03004 1-467 Q156E): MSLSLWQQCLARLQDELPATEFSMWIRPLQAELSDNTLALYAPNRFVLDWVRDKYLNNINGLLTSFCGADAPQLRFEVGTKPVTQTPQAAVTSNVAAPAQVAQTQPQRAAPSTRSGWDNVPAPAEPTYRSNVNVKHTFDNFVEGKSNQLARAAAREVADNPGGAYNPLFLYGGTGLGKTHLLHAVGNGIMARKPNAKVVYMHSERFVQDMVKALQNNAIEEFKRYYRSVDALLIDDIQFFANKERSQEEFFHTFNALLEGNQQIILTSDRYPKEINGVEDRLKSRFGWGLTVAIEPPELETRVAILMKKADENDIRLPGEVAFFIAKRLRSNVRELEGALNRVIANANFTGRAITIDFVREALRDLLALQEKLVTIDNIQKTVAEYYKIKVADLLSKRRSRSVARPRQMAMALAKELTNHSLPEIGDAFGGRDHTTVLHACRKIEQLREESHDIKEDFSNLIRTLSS
Nature of the data set: nitrocellulose filter retention assay. To be noted: read-out: K D (ATP binding). The text has this:
(§1) nitrocellulose filter retention assay on DnaA (Escherichia coli replication initiator DnaA)

The target in data set [2] is T2, DnaA (Escherichia coli replication initiator DnaA) (Escherichia coli, UniProt P03004, Q156N).
T2 construct: full-length, residues 1-467, 10X-histidine-tagged, recombinant from plasmid pZL411, Ni-NTA purified (SAXS samples also Sephacryl-300 gel filtration), ~52 kDa monomer
T2 sequence (P03004 1-467 Q156N): T1 sequence (P03004 1-467 Q156E) with E156N
Nature of the data set: nitrocellulose filter retention assay. To be noted: read-out: K D (ATP binding).
Excerpt: as §1

Data set [3] has as its target T3, DnaA (Escherichia coli replication initiator DnaA) (Escherichia coli, UniProt P03004, H136Q).
T3 construct: full-length, residues 1-467, 10X-histidine-tagged, recombinant from plasmid pZL411, Ni-NTA purified (SAXS samples also Sephacryl-300 gel filtration), ~52 kDa monomer
T3 sequence (P03004 1-467 H136Q): T1 sequence (P03004 1-467 Q156E) with H136Q, E156Q
Kind of data set: nitrocellulose filter retention assay. To be noted: read-out: K D (ATP binding).
Excerpt: as §1

Data set [4] deals with T4, DnaA (Escherichia coli replication initiator DnaA) (Escherichia coli, UniProt P03004).
T4 construct: full-length, residues 1-467, 10X-histidine-tagged, recombinant from plasmid pZL411, Ni-NTA purified (SAXS samples also Sephacryl-300 gel filtration), ~52 kDa monomer
T4 sequence (P03004 1-467): T1 sequence (P03004 1-467 Q156E) with E156Q
Nature of the data set: nitrocellulose filter retention assay. The following applies: read-out: K D (ATP binding).
Excerpt: as §1

Data set [5] has as its target T5, DnaA (Escherichia coli replication initiator DnaA) (Escherichia coli, UniProt P03004, F76A).
T5 construct: full-length, residues 1-467, 10X-histidine-tagged, recombinant from plasmid pZL411, Ni-NTA purified (SAXS samples also Sephacryl-300 gel filtration), ~52 kDa monomer
T5 sequence (P03004 1-467 F76A): T1 sequence (P03004 1-467 Q156E) with F76A, E156Q
Kind of data set: nitrocellulose filter retention assay. The following applies: read-out: K D (ATP binding).
Excerpt: as §1

Data set [6] deals with T6, DnaA (Escherichia coli replication initiator DnaA) (Escherichia coli, UniProt P03004, H136A).
T6 construct: full-length, residues 1-467, 10X-histidine-tagged, recombinant from plasmid pZL411, Ni-NTA purified (SAXS samples also Sephacryl-300 gel filtration), ~52 kDa monomer
T6 sequence (P03004 1-467 H136A): T1 sequence (P03004 1-467 Q156E) with H136A, E156Q
Nature of the data set: nitrocellulose filter retention assay. The following applies: read-out: K D (ATP binding).
Excerpt: as §1

In data set [7] the target is T7, DnaA (Escherichia coli replication initiator DnaA) (Escherichia coli, UniProt P03004, F76Y).
T7 construct: full-length, residues 1-467, 10X-histidine-tagged, recombinant from plasmid pZL411, Ni-NTA purified (SAXS samples also Sephacryl-300 gel filtration), ~52 kDa monomer
T7 sequence (P03004 1-467 F76Y): T1 sequence (P03004 1-467 Q156E) with F76Y, E156Q
Nature of the data set: nitrocellulose filter retention assay. To be noted: read-out: K D (ATP binding).
Excerpt: as §1

Data set [8] deals with the molecule itself. Nature of the data set: cross-linking; amine-specific cross-linker DTSSP; apo or with 0.5 mM ADP, AMP-PNP or ATP; SDS-PAGE and western blot with anti-DnaA antibody. For orientation: Immunoblotting shows a protein as a band on a membrane.

Changes are numbered by the printed parent chain. Names and notes keep the numbering of the source.

Regarding `Nc1ncnc2c1ncn2[C@@H]1O[C@H](COP(=O)(O)OP(=O)(O)OP(=O)(O)O)[C@@H](O)[C@H]1O` [ATP], the Kd in data set [1] was 100 ± 20 nM; in data set [2], 100 ± 20 nM; in data set [3], 100 ± 20 nM; in data set [4], 110 ± 30 nM; in data set [5] it was 120 ± 30 nM; in data set [6], 140 ± 40 nM. Besides, in data set [7], the Kd was 140 ± 30 nM.

B1: DnaA(H136A) (natural protein, E. coli, UniProt P03004 1-467, looked up)
chain: T1 sequence (P03004 1-467 Q156E) with H136A, E156Q
notes: DnaA, E. coli, amino acid residues 1-467, with H136A; Made by site-directed mutagenesis on pZL411; also called ATP-DnaA(H136A)
For the molecule B1, in data set [8], the binding result was “binds”.
